The values that follow are results of earlier work, collected in patent US10952984B2, “All-trans retinoic acid injectant and application” (HIGHFIELD BIOPHARMACEUTICAL CORPORATION, priority 2016, dated 2021).

One may read the bioavailability as dose-corrected exposure relative to a reference, in per cent.

Assay in data set [1]: not given
The source holds these as a separate data set.

Converted amounts (≈) assume the structure as drawn. Some results are limits rather than exact numbers.

For the compound `CC1=C(/C=C/C(C)=C/C=C/C(C)=C/C(=O)O)C(C)(C)CCC1` [all-trans retinoic acid], the water solubility is 4.77 µg/mL (≈ 15.9 µM). Besides, the “solubility of the all-trans retinoic acid in the prior art” value (prior art) was 10 µg/mL. For the same compound, the bioavailability in data set [1] (oral dosage forms, clinical studies) is reported as ≤ 30%. Also, the plasma half-life result in data set [1] (prior art) was “short”.
